# Data published in PubChem BioAssay AID330 (DTP/NCI, 2004).
# “And” between values parts separate entries of the source, which are not always exact repeats. Identical values can stand only once. Inconclusive results and toxic doses are left out.
# Test system: P388 leukemia ip, CD2F1 mice, survival T/C
# Assay: NCI In Vivo Anticancer Drug Screen. Data for tumor model P388 Leukemia (intraperitoneal) in CD2F1 (CDF1) mice
# Conditions: endpoint: median survival time, higher = longer survival
# Procedure, shortened: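 Mice carrying the transplanted tumor received test compound or vehicle. Survival was recorded in each group, and the value is the treated-group measurement divided by that of the vehicle-treated control group.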
# [1] = dose: 25.0 mg/kg/injection, schedule: Q04DX002 (ip), vehicle: saline with Tween-80
# [2] = dose: 50.0 mg/kg/injection, schedule: Q04DX002 (ip), vehicle: saline with Tween-80
# [3] = dose: 100.0 mg/kg/injection, schedule: Q04DX002 (ip), vehicle: saline with Tween-80
# [4] = dose: 50.0 mg/kg/injection, schedule: Q01DX005 (ip), vehicle: Klucel (hydroxypropylcellulose) (HPC)
# [5] = dose: 100.0 mg/kg/injection, schedule: Q01DX005 (ip), vehicle: Klucel (hydroxypropylcellulose) (HPC)
# [6] = dose: 200.0 mg/kg/injection, schedule: Q01DX005 (ip), vehicle: Klucel (hydroxypropylcellulose) (HPC)
# [7] = dose: 50.0 mg/kg/injection, schedule: Q01DX005 (ip), vehicle: saline with Tween-80
# [8] = dose: 100.0 mg/kg/injection, schedule: Q01DX005 (ip), vehicle: saline with Tween-80
# [9] = dose: 25.0 mg/kg/injection, schedule: Q01DX009 (ip), vehicle: other
# [10] = dose: 50.0 mg/kg/injection, schedule: Q01DX009 (ip), vehicle: other
# [11] = dose: 200.0 mg/kg/injection, schedule: Q01DX009 (ip), vehicle: other
# [12] = dose: 60.0 mg/kg/injection, schedule: Q01DX005 (ip), vehicle: saline with Tween-80
# [13] = dose: 120.0 mg/kg/injection, schedule: Q01DX005 (ip), vehicle: saline with Tween-80
# [14] = dose: 12.5 mg/kg/injection, schedule: Q01DX009 (ip), vehicle: other
# [15] = dose: 100.0 mg/kg/injection, schedule: Q01DX009 (ip), vehicle: other
# [16] = dose: 100.0 mg/kg/injection, schedule: Q01DX001 (ip), vehicle: Klucel (hydroxypropylcellulose) (HPC)
# [17] = dose: 200.0 mg/kg/injection, schedule: Q01DX001 (ip), vehicle: Klucel (hydroxypropylcellulose) (HPC)
compound,measurement,setting,value
CC1CCC2CC(C3CCCC[N-]3)[N-]C(N)C2C1.CC1CCC2CC(C3CCCC[N-]3)[N-]C(N)C2C1.O=[N+]([O-])O.[Cu+] (stereo not given),T/C,"dose: 12.5 mg/kg/injection, schedule: Q04DX002 (ip), vehicle: saline",97 % of control
same,T/C,"dose: 12.5 mg/kg/injection, schedule: Q04DX002 (ip), vehicle: suspension in saline",100 % of control
same,T/C,"dose: 25.0 mg/kg/injection, schedule: Q04DX002 (ip), vehicle: saline",104 % of control
same,T/C,"dose: 25.0 mg/kg/injection, schedule: Q04DX002 (ip), vehicle: suspension in saline",104 % of control and 118 % of control
same,T/C,"dose: 50.0 mg/kg/injection, schedule: Q04DX002 (ip), vehicle: suspension in saline",111 % of control and 114 % of control
same,T/C,"dose: 100.0 mg/kg/injection, schedule: Q04DX002 (ip), vehicle: suspension in saline",103 % of control and 105 % of control and 120 % of control
CCCCCCCCCCCCCCC(Br)C(=O)O (stereo not given),T/C,"dose: 50.0 mg/kg/injection, schedule: Q01DX009 (ip), vehicle: saline",101 % of control
same,T/C,"dose: 100.0 mg/kg/injection, schedule: Q01DX009 (ip), vehicle: saline",103 % of control
CSC(=S)/C=C1\SC=CN1C,T/C,[1],96 % of control
same,T/C,[2],100 % of control
same,T/C,[3],100 % of control
Nc1ccnc(Sc2ncccc2[N+](=O)[O-])n1,T/C,[4],100 % of control
same,T/C,[5],100 % of control
same,T/C,[6],93 % of control
S=c1ncc2[nH]cnc2[nH]1,T/C,[4],99 % of control
same,T/C,[5],105 % of control
same,T/C,[6],105 % of control
Nc1cccc(-n2ccnc2)c1,T/C,[3],100 % of control
same,T/C,"dose: 200.0 mg/kg/injection, schedule: Q04DX002 (ip), vehicle: saline with Tween-80",93 % of control
same,T/C,"dose: 400.0 mg/kg/injection, schedule: Q04DX002 (ip), vehicle: saline with Tween-80",90 % of control
CC1(C)[C@@H]2CC[C@]3(C)[C@H]4CC[C@]5(C)[C@@H](O)CC[C@H]5[C@@H]4CC[C@]3(O2)[C@@H]1O,T/C,[7],91 % of control
same,T/C,[8],91 % of control
CCC12CN3CCc4c([nH]c5ccccc45)C(C(=O)OC)(c4cc5c(cc4OC)N(C)C4C(O)(C(=O)OC)C(OC(C)=O)C6(CC)C=CCN7CCC54C76)CC(C3=O)C1O2 (stereo not given),T/C,"dose: 4.0 mg/kg/injection, schedule: Q01DX001 (ip), vehicle: water",118 % of control
same,T/C,"dose: 32.0 mg/kg/injection, schedule: Q01DX001 (ip), vehicle: water",116 % of control
same,T/C,"dose: 64.0 mg/kg/injection, schedule: Q01DX001 (ip), vehicle: water",169 % of control
COC(=O)c1c2c(nc3ccccc13)-c1ccccc1C(C)(C)C2,T/C,[4],92 % of control
same,T/C,[5],95 % of control
same,T/C,[6],96 % of control
COc1ccc2c(c1)C(=O)C1(CC2)OC1c1ccncc1 (stereo not given),T/C,"dose: 100.0 mg/kg/injection, schedule: Q01DX009 (ip), vehicle: Klucel (hydroxypropylcellulose) (HPC)",97 % of control
same,T/C,"dose: 200.0 mg/kg/injection, schedule: Q01DX009 (ip), vehicle: Klucel (hydroxypropylcellulose) (HPC)",100 % of control
CC1(C)C=C(C(Br)c2ccccc2)C(=O)c2ccccc21 (stereo not given),T/C,[9],100 % of control
same,T/C,"dose: 44.0 mg/kg/injection, schedule: Q01DX009 (ip), vehicle: other",112 % of control
same,T/C,[10],118 % of control
same,T/C,"dose: 150.0 mg/kg/injection, schedule: Q01DX009 (ip), vehicle: other",121 % of control
same,T/C,[11],116 % of control
CC(=O)Cc1cc(-c2cc(CC(C)=O)[nH]n2)n[nH]1,T/C,"dose: 60.0 mg/kg/injection, schedule: Q01DX005 (ip), vehicle: saline",98 % of control
same,T/C,"dose: 120.0 mg/kg/injection, schedule: Q01DX005 (ip), vehicle: saline",95 % of control
same,T/C,"dose: 240.0 mg/kg/injection, schedule: Q01DX005 (ip), vehicle: saline",102 % of control
Cc1ccc(S(=O)(=O)NNC(=O)c2nc3ccccc3c(=O)[nH]2)cc1,T/C,[12],100 % of control
same,T/C,[13],92 % of control
S=c1nc(-c2nc(=S)[nH]c3c2CCCCCCCCCC3)c2c([nH]1)CCCCCCCCCC2,T/C,"dose: 60.0 mg/kg/injection, schedule: Q01DX005 (ip), vehicle: Klucel (hydroxypropylcellulose) (HPC)",99 % of control
same,T/C,"dose: 120.0 mg/kg/injection, schedule: Q01DX005 (ip), vehicle: Klucel (hydroxypropylcellulose) (HPC)",92 % of control
same,T/C,"dose: 240.0 mg/kg/injection, schedule: Q01DX005 (ip), vehicle: Klucel (hydroxypropylcellulose) (HPC)",93 % of control
Cc1cc([N+](=O)[O-])c(C)cc1Cl,T/C,"dose: 37.5 mg/kg/injection, schedule: Q04DX003 (ip), vehicle: saline sonified",118 % of control
same,T/C,"dose: 75.0 mg/kg/injection, schedule: Q04DX003 (ip), vehicle: saline sonified",100 % of control
same,T/C,"dose: 150.0 mg/kg/injection, schedule: Q04DX003 (ip), vehicle: saline sonified",118 % of control
COC(=O)C(NC(=O)C(Cc1c[nH]c2ccccc12)NC(=O)OC(C)(C)C)C(C)C (stereo not given),T/C,[14],96 % of control
same,T/C,[9],90 % of control
same,T/C,[10],91 % of control
same,T/C,[15],109 % of control
same,T/C,[11],114 % of control
CC1(C)[C@H](C(=O)O)N2C(=O)[C@@H](NC(=O)C(c3ccccc3)c3ccccc3)[C@H]2S1=O (stereo not given in full),T/C,"dose: 25.0 mg/kg/injection, schedule: Q01DX005 (ip), vehicle: Klucel (hydroxypropylcellulose) (HPC)",101 % of control
same,T/C,[4],99 % of control
same,T/C,[5],101 % of control
Nc1ccc(/C=C/c2cccc3cccnc23)cc1,T/C,"dose: 12.5 mg/kg/injection, schedule: Q01DX009 (ip), vehicle: saline with Tween-80",96 % of control
same,T/C,"dose: 25.0 mg/kg/injection, schedule: Q01DX009 (ip), vehicle: saline with Tween-80",96 % of control
same,T/C,"dose: 50.0 mg/kg/injection, schedule: Q01DX009 (ip), vehicle: saline with Tween-80",93 % of control
CNS(=O)Nc1ccnc(=O)[nH]1 (stereo not given),T/C,"dose: 50.0 mg/kg/injection, schedule: Q04DX002 (ip), vehicle: Klucel (hydroxypropylcellulose) (HPC)",99 % of control
same,T/C,"dose: 100.0 mg/kg/injection, schedule: Q04DX002 (ip), vehicle: Klucel (hydroxypropylcellulose) (HPC)",100 % of control
same,T/C,"dose: 200.0 mg/kg/injection, schedule: Q04DX002 (ip), vehicle: Klucel (hydroxypropylcellulose) (HPC)",106 % of control
same,T/C,"dose: 400.0 mg/kg/injection, schedule: Q04DX002 (ip), vehicle: Klucel (hydroxypropylcellulose) (HPC)",100 % of control
CCC1(C(=O)c2ccccc2)C(C(=O)OC)=NC(=N)N=C1C(=O)OC (stereo not given),T/C,[12],100 % of control
same,T/C,[13],95 % of control
COc1cc(CN2CCCCC2)cc2cc(C(=O)O)c(=O)oc12,T/C,[7],103 % of control
same,T/C,[8],101 % of control
same,T/C,"dose: 200.0 mg/kg/injection, schedule: Q01DX005 (ip), vehicle: saline with Tween-80",100 % of control
CC(CC(=O)c1ccccc1)=NCCN=C(C)CC(=O)c1ccccc1.[Cl][Sn][Cl],T/C,[16],97 % of control
same,T/C,[17],102 % of control
same,T/C,"dose: 400.0 mg/kg/injection, schedule: Q01DX001 (ip), vehicle: Klucel (hydroxypropylcellulose) (HPC)",101 % of control
COc1ccc2c(c1)[C@@]13CCCCC1[C@@H](C2)N(CC1CC1)CC3 (stereo not given in full),T/C,[16],100 % of control
same,T/C,[17],100 % of control
O=C1c2ccccc2C(=O)N1CC[P+](Cc1ccccc1)(Cc1ccccc1)Cc1ccccc1,T/C,"dose: 0.78 mg/kg/injection, schedule: Q01DX009 (ip), vehicle: other",105 % of control
same,T/C,"dose: 1.56 mg/kg/injection, schedule: Q01DX009 (ip), vehicle: other",97 % of control
same,T/C,"dose: 3.13 mg/kg/injection, schedule: Q01DX009 (ip), vehicle: other",97 % of control
same,T/C,"dose: 6.25 mg/kg/injection, schedule: Q01DX009 (ip), vehicle: other",106 % of control
same,T/C,[14],99 % of control and 90 % of control
same,T/C,[9],112 % of control and 91 % of control
same,T/C,[10],105 % of control
same,T/C,[15],89 % of control
O=C1C(C(=Nc2ccccc2Cl)c2ccccc2)=C(O)c2ccccc21,T/C,[1],99 % of control
same,T/C,[2],92 % of control
same,T/C,[3],93 % of control
CCCCCCCn1cnc2cc(N3CCOCC3)c([N+](=O)[O-])cc2c1=O,T/C,"dose: 100.0 mg/kg/injection, schedule: Q04DX003 (ip), vehicle: Klucel (hydroxypropylcellulose) (HPC)",102 % of control
same,T/C,"dose: 200.0 mg/kg/injection, schedule: Q04DX003 (ip), vehicle: Klucel (hydroxypropylcellulose) (HPC)",95 % of control
same,T/C,"dose: 400.0 mg/kg/injection, schedule: Q04DX003 (ip), vehicle: Klucel (hydroxypropylcellulose) (HPC)",100 % of control
